Key:
[1] = target: 3',5'-cyclic-AMP phosphodiesterase 4B (Homo sapiens, UniProt Q07343); assay: Inhibition of full-length human PDE4B2 assessed as cAMP hydrolysis preincubated for 20 mins followed by cAMP addition measured after 30 mins
Homo sapiens [2] = species: Homo sapiens; assay: Selectivity ratio of IC50 for full-length human PDE4D2 to IC50 for full-length human PDE4B2
[3] = target: T1, 3',5'-cyclic-AMP phosphodiesterase 4D (Homo sapiens, UniProt Q08499); assay: Inhibition of full-length human PDE4D2 assessed as cAMP hydrolysis preincubated for 20 mins followed by cAMP addition measured after 30 mins
[4] = Antiinflammatory activity in Balb/c mouse splenocytes assessed as inhibition of LPS-induced TNF-alpha production after 18 to 24 hrs; type: functional, cell-based; conditions: Splenocyte
[5] = Terminal half life in mouse at 10 mg/kg, po; type: ADME, organism-based; set-up: dose 10 mg/kg, route oral; conditions: in vivo, read-out: beta t1/2 (converted)
[6] = Permeability of the compound at 50 uM at pH 7.4 after 4 hrs by PAMPA; type: ADME; conditions: read-out: permeability
[7] = Cmax in mouse at 10 mg/kg, po; type: ADME, organism-based; set-up: dose 10 mg/kg, route oral; conditions: in vivo
[8] = AUC in mouse at 10 mg/kg, po; type: ADME, organism-based; set-up: dose 10 mg/kg, route oral; conditions: plasma
[9] = 1-octanol-phosphate buffered saline distribution coefficient, log D of the compound at 200 uM at pH 7.4 after 30 mins by shake flask method; type: physicochemical
[10] = target: T1, 3',5'-cyclic-AMP phosphodiesterase 4D; assay: Inhibition of recombinant human PDE4D (78 to 508)
Homo sapiens [11] = species: Homo sapiens; assay: Selectivity ratio of IC50 for recombinant human PDE4D (78 to 508) to IC50 for recombinant human PDE4B (152 to 564)

3',5'-cyclic-AMP phosphodiesterase 4B, sequence (Q07343 whole entry): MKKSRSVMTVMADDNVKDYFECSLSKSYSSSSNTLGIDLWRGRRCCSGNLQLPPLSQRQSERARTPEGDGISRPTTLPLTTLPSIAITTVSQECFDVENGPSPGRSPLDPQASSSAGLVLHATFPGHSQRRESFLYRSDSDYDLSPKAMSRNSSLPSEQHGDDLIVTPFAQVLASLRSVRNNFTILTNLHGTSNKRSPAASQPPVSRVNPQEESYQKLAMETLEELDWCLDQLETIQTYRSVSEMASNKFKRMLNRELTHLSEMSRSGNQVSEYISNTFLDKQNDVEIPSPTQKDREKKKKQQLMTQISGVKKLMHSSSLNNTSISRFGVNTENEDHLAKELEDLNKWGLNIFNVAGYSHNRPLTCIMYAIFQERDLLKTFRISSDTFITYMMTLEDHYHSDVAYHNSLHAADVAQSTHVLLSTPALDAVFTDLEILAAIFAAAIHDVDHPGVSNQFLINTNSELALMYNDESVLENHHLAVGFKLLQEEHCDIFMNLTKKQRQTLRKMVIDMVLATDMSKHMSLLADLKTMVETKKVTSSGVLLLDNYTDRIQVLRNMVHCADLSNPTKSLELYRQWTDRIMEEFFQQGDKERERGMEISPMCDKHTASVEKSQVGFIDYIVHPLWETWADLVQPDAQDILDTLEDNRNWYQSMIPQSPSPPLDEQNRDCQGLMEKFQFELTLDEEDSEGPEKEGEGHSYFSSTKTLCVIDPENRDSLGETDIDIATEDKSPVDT
T1 sequence (Q08499 whole entry): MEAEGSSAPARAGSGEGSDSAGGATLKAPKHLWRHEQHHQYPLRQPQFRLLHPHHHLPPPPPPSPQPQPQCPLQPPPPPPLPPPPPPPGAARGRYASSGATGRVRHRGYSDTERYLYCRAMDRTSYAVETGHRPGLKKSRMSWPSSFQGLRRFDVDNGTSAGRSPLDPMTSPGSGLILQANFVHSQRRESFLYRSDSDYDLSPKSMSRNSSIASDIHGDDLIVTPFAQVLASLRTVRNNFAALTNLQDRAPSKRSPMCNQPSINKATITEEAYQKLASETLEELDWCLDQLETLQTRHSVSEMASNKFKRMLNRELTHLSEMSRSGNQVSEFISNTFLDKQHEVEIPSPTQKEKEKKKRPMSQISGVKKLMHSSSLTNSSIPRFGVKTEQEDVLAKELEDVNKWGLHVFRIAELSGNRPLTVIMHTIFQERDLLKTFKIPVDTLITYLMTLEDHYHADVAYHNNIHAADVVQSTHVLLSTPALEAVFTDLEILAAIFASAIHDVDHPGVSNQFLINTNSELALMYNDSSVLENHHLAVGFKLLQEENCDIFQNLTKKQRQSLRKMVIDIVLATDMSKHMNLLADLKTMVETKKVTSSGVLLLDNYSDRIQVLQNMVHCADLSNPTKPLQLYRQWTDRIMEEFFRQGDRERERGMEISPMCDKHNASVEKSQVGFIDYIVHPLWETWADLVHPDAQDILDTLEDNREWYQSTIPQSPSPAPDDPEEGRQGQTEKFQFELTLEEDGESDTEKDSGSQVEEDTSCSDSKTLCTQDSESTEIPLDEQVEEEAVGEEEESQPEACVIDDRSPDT

| Structure (SMILES) | IC50 [1] [nM] | Ratio IC50 (Homo sapiens [2]) | IC50 [3] [nM] | also measured |
| --- | --- | --- | --- | --- |
| O=C(O)Cc1ccc(Nc2nc(-c3ccc(Cl)cc3)nc3c2SCCC3)cc1 | 120 | 3.5 | 420 | – |
| O=C(O)Cc1ccc(Nc2nc(-c3cccc(F)c3)nc3c2SCCC3)cc1 | 57 | 12 | 680 | – |
| O=C(O)Cc1ccc(Nc2nc(-c3cc4ccccc4s3)nc3c2S(=O)(=O)CCC3)cc1 | 8.3 | 48 | 400 | – |
| O=C(O)Cc1ccc(Nc2nc(-c3ccc(-c4ccccc4)cc3)nc3c2S(=O)(=O)CCC3)cc1 | 38 | 21 | 790 | – |
| COc1ccc(-c2nc3c(c(Nc4ccc(CC(=O)O)c(F)c4)n2)S(=O)(=O)CCC3)c(F)c1F | 8.2 | 171 | 1400 | IC50 [4]: 131 nM |
| COc1ccc(-c2nc3c(c(Nc4ccc(CC(=O)O)c(F)c4)n2)S(=O)(=O)CCC3)cc1F | 4.6 | 135 | 620 | half-life [5]: 2 h; Papp at 4 h, 50 µM [6]: 14.3 ×10⁻⁶ cm/s; Cmax [7]: 1700 ng/mL; AUC [8]: 2770 ng·h/mL; IC50 [4]: 18 nM; logD at 0.5 h, 200 µM [9]: 0.8 |
| CN(C)c1ccc(-c2nc3c(c(Nc4ccc(CC(=O)O)cc4)n2)SCCC3)cc1 | 38 | 21 | 790 | – |
| CN(C)c1ccc(-c2nc3c(c(Nc4ccc(CC(=O)O)cc4)n2)SCCC3)cn1 | 140 | 11 | 1600 | – |
| COc1ccc(-c2nc3c(c(Nc4ccc(CC(=O)O)cc4)n2)S(=O)(=O)CCC3)cc1Cl | 13 | 100 | 1300 | – |
| O=C(O)Cc1ccc(Nc2nc(-c3ccccc3F)nc3c2SCCC3)cc1 | 880 | 3.9 | 3400 | – |
| COc1ccc(-c2nc3c(c(Nc4cc(Cl)c(CC(=O)O)cc4Cl)n2)S(=O)(=O)CCC3)cc1F | 49 | 12 | 600 | – |
| O=C(O)Cc1ccc(Nc2nc(-c3ccc4ccccc4c3)nc3c2S(=O)(=O)CCC3)cc1F | 5.9 | 137 | 810 | IC50 [4]: 44 nM |
| O=C(O)Cc1ccc(Nc2nc(-c3cc4ccccc4o3)nc3c2S(=O)(=O)CCC3)cc1 | 20 | 55 | 1100 | – |
| O=C(O)Cc1ccc(Nc2nc(-c3cc4ccccc4s3)nc3c2S(=O)(=O)CCC3)cc1F | 3.8 | 158 | 600 | IC50 [4]: 11 nM |
| O=C(O)Cc1ccc(Nc2nc(-c3ccccc3)nc3c2SCCC3)cc1 | 210 | 6.2 | 1300 | IC50 [10]: 1300 nM; Ratio IC50 (Homo sapiens [11]): 45 |
| COc1ccc(-c2nc3c(c(Nc4ccc(CC(=O)O)c(F)c4)n2)S(=O)(=O)CCC3)cc1 | 7.5 | 173 | 1300 | IC50 [4]: 96 nM |
| COc1ccc(-c2nc3c(c(Nc4ccc(CC(=O)O)cc4)n2)S(=O)(=O)CCC3)cn1 | 250 | 15 | 3800 | – |
| COc1ccc(-c2nc3c(c(Nc4ccc(CC(=O)O)cc4)n2)SCCC3)c(F)c1F | 140 | 16 | 2200 | – |
| CC(=O)c1ccc(-c2nc3c(c(Nc4ccc(CC(=O)O)cc4)n2)SCCC3)cc1 | 34 | 29 | 1000 | – |
| COc1ccc(-c2nc3c(c(Nc4ccc(CC(=O)O)cc4)n2)SCCC3)cc1 | 11 | 25 | 280 | – |
| O=C(O)Cc1ccc(Nc2nc(-c3ccc4c(F)cccc4c3)nc3c2S(=O)(=O)CCC3)cc1 | 14 | 31 | 440 | – |

| Structure (SMILES) | IC50 [1] [nM] | Ratio IC50 (Homo sapiens [2]) | IC50 [3] [nM] | also measured |
| --- | --- | --- | --- | --- |
| COc1ccc(-c2nc3c(c(Nc4cc(F)c(CC(=O)O)c(F)c4)n2)S(=O)(=O)CCC3)cc1F | 5.2 | 112 | 580 | – |
| COc1ccc(-c2nc3c(c(Nc4cc(F)c(CC(=O)O)cc4F)n2)S(=O)(=O)CCC3)cc1F | 16 | 81 | 1300 | – |
| COc1ccc(-c2nc3c(c(Nc4ccc(CC(=O)O)c(Cl)c4)n2)S(=O)(=O)CCC3)cc1F | 64 | 20 | 1300 | – |
| COc1cccc2cc(-c3nc4c(c(Nc5ccc(CC(=O)O)cc5)n3)S(=O)(=O)CCC4)ccc12 | 30 | 9.7 | 290 | – |
| COc1cccc(-c2nc3c(c(Nc4ccc(CC(=O)O)cc4)n2)SCCC3)c1 | 120 | 15 | 1800 | – |
| O=C(O)Cc1ccc(Nc2nc(-c3ccc4ccccc4c3)nc3c2S(=O)(=O)CCC3)cc1 | 19 | 27 | 520 | – |
| O=C(O)Cc1ccc(Nc2nc(-c3ccccc3)nc3c2S(=O)(=O)CCC3)cc1 | 150 | 3.7 | 550 | IC50 [10]: 2800 nM; Ratio IC50 (Homo sapiens [11]): 112 |
| CCCCNC(=O)Cc1ccc(Nc2nc(-c3ccccc3)nc3c2S(=O)(=O)CCC3)cc1 | 70 | 2.6 | 180 | IC50 [10]: 260 nM; Ratio IC50 (Homo sapiens [11]): 12 |
| COc1ccc(-c2nc3c(c(Nc4ccc(CC(=O)O)cc4)n2)S(=O)(=O)CCC3)c(F)c1F | 46 | 74 | 3400 | – |
| COc1ccc(-c2nc3c(c(Nc4ccc(CC(=O)O)cc4)n2)S(=O)(=O)CCC3)cc1 | 44 | 34 | 1500 | – |
| CC(=O)c1ccc(-c2nc3c(c(Nc4ccc(CC(=O)O)cc4)n2)S(=O)(=O)CCC3)cc1 | 10 | 86 | 860 | – |
| O=C(O)Cc1ccc(Nc2nc(-c3ccc(F)cc3)nc3c2SCCC3)cc1 | 120 | 8.3 | 1000 | – |
| N#Cc1ccc(-c2nc3c(c(Nc4ccc(CC(=O)O)cc4)n2)SCCC3)cc1 | 30 | 9.7 | 290 | – |
| CN(C)c1ccc(-c2nc3c(c(Nc4ccc(CC(=O)O)cc4)n2)S(=O)(=O)CCC3)cc1 | 38 | 55 | 2100 | – |
| COc1ccc(-c2nc3c(c(Nc4ccc(CC(=O)NCC(C)(C)C)cc4)n2)S(=O)(=O)CCC3)cc1F | 78 | 3.8 | 300 | – |
| COc1ccc(-c2nc3c(c(Nc4ccc(CC(=O)O)c(F)c4)n2)S(=O)(=O)CCC3)cc1Cl | 3 | 433 | 1300 | IC50 [4]: 11 nM |
| CN(C)c1ccc(-c2nc3c(c(Nc4ccc(CC(=O)O)cc4)n2)S(=O)(=O)CCC3)cn1 | 56 | 21 | 1200 | – |
| COc1ccc(-c2nc3c(c(Nc4ccc(CC(=O)O)cc4)n2)SCCC3)cn1 | 140 | 53 | 7400 | – |
| COc1ccc(-c2nc3c(c(Nc4ccc(CC(=O)O)cc4)n2)SCCC3)cc1Cl | 71 | 6.1 | 430 | – |
| COc1ccc(-c2nc3c(c(Nc4cc(F)c(CC(=O)O)cc4Cl)n2)S(=O)(=O)CCC3)cc1F | 9.9 | 57 | 560 | – |
| COc1ccc(-c2nc3c(c(Nc4ccc(CC(=O)O)cc4)n2)S(=O)(=O)CCC3)cc1F | 10 | 100 | 1000 | – |

— ChEMBL document CHEMBL3112394, “Identification of the 5,5-dioxo-7,8-dihydro-6H-thiopyrano[3,2-d]pyrimidine derivatives as highly selective PDE4B inhibitors” (Bioorg Med Chem Lett, 2014)
